Values of other authors in patent US20110053879A1, “[…] AND AMRUBICIN TO TREAT LUNG CANCER” (priority 2008, published 2011).

Assays:
stage III or IV non-SCLC = details: 45 mg/m^2 on days 1 to 3; chemotherapy-naive patients; intent-to-treat analysis
[1] = preclinical studies
extensive-stage SCLC = details: 45 mg/m^2 on days 1 to 3; chemotherapy-naive patients; intent-to-treat analysis
[2] = phase II trial
human tumor xenografts = details: several human tumor xenografts implanted in nude mice
[3] = a specific crystalline form (JP 11-222497 A)

Row | Structure (SMILES) | strength as a DNA intercalator relative to doxorubicin (weaker) (DNA) | response rate, stage III or IV non-SCLC (stage III or IV non-SCLC) | cardiotoxicity [1] | response rate, extensive-stage SCLC (extensive-stage SCLC) | grade 3 or 4 anemia [2] | grade 3 or 4 anorexia [2] | grade 3 or 4 leukopenia [2] | grade 3 or 4 nausea/vomiting [2] | grade 3 or 4 neutropenia [2] | grade 3 or 4 thrombocytopenia [2] | antitumor activity compared with doxorubicin (human tumor xenografts) | heat stability [3]
1 | CC(O)[C@]1(N)Cc2c(O)c3c(c(O)c2[C@@H](O[C@H]2C[C@H](O)[C@H](O)CO2)C1)C(=O)c1ccccc1C3=O (stereo partly shown) [amrubicinol] | approximately 1/10 | – | – | – | – | – | – | – | – | – | – | –
2 | CC(=O)[C@]1(N)Cc2c(O)c3c(c(O)c2[C@@H](O[C@H]2C[C@H](O)[C@H](O)CO2)C1)C(=O)c1ccccc1C3=O [amrubicin, (7S,9S)-9-Acetyl-9-amino-7-[(2-deoxy-β-D-erythro-pentapyranosyl)oxy]-7,8,9,10-tetrahydro-6,11-dihydroxy-5,12-nephthacenedione] | approximately 1/10 | 25% | almost no cardiotoxicity | 79% | 23.0% | 4.9% | 52.5% | 4.9% | 72.1% | 14.8% | more potent antitumor activity than doxorubicin | –
3 | CC(=O)[C@]1(N)Cc2c(O)c3c(c(O)c2[C@@H](O[C@H]2C[C@H](O)[C@H](O)CO2)C1)C(=O)c1ccccc1C3=O.Cl [Amrubicin hydrochloride] | – | – | – | – | – | – | – | – | – | – | – | excellent in heat stability
